Assay results reported in PubChem BioAssay (NCI).
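Grown in 96-well plates, cells were treated for 48 hours with each compound at five concentrations. Insufficient inhibition: endpoint recorded as highest concentration tested. Abbreviation: GI50, concentration required for 50% inhibition of growth. Definition used: TGI = concentration required for complete inhibition of growth.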

Legend:
Experiment in all cases: NCI-60 cell line screen, 48 h
HCT-15 colon = system: HCT-15 colon
786-0 renal = system: 786-0 renal
M14 melanoma = system: M14 melanoma
HCT-116 colon = system: HCT-116 colon
U251 CNS = system: U251 CNS
HL-60(TB) leukemia = system: HL-60(TB) leukemia
KM12 colon = system: KM12 colon
UACC-257 melanoma = system: UACC-257 melanoma
UACC-62 melanoma = system: UACC-62 melanoma
TK-10 renal = system: TK-10 renal

Structure (SMILES)	GI50 (HCT-15 colon) [µM]	TGI (HCT-15 colon) [µM]	GI50 (786-0 renal) [µM]	TGI (786-0 renal) [µM]	GI50 (M14 melanoma) [µM]	TGI (M14 melanoma) [µM]	GI50 (HCT-116 colon) [µM]	TGI (HCT-116 colon) [µM]	GI50 (U251 CNS) [µM]	TGI (U251 CNS) [µM]	GI50 (HL-60(TB) leukemia) [µM]	TGI (HL-60(TB) leukemia) [µM]	GI50 (KM12 colon) [µM]	TGI (KM12 colon) [µM]	GI50 (UACC-257 melanoma) [µM]	TGI (UACC-257 melanoma) [µM]	GI50 (UACC-62 melanoma) [µM]	TGI (UACC-62 melanoma) [µM]	GI50 (TK-10 renal) [µM]	TGI (TK-10 renal) [µM]
N.N.N.N.N.O=C([O-])c1nn[n-]n1.[Cl-].[Co+3]	> 100	> 100	> 100	> 100	> 100	> 100	> 100	> 100	> 100	> 100	> 100	> 100	> 100	> 100	> 100	> 100	> 100	> 100	> 100	> 100
COc1ccc2c(c1)C=C([N+](=O)[O-])C(C1OC(C)(C)OC1C1COC(C)(C)O1)O2 (stereo not drawn)		5.2		26.5		6.15		4.04		9.83		5.49		4.31		6.16		3.72		32.4
CCOC(=O)NC(=O)c1cn(CCOCCOC(=O)NCCCCCCNC(=O)OCCOCCn2cc(C(=O)NC(=O)OCC)c(=O)[nH]c2=O)c(=O)[nH]c1=O		> 100		> 100		> 100		> 100		> 100		> 100		> 100		> 100		> 100		> 100
CCOC(=O)c1c(CN2CCN(c3ccccc3)CC2)n(-c2ccccc2)c2cc(Br)c(O)cc12	11.3	38.6	5.23	21.5	15	41.6	4.39	20.1	6.43	19	4.12	> 100	8.49	39.9	18.2	50.9	16.1	29.6	25	58.9
CN/N=C(/CCN1CCCC1)CC(c1ccccc1)c1c(O)c2ccccc2oc1=O (stereo not drawn)		> 100		> 100		> 100		> 100		> 100		> 100		> 100		> 100		> 100		> 100
COc1cc2oc(-c3ccc(O)cc3)cc(=O)c2c(OC)c1OC		> 100		> 100		> 100		> 100		> 100		> 100		> 100		> 100		> 100		> 100
COc1ccc(C(=O)c2cc(C)c(OC)c(C)c2)c(OC)c1N(C(=O)C(Cl)Cl)C(=O)C(Cl)Cl	0.0617	> 100	0.0455	> 100	0.0338	> 100	0.0772	> 58.8	0.0553	> 100	0.0306	0.0956	0.0461		> 69.4	> 100	0.0605	> 100	> 79.8	> 100
CCN(CC)c1ccc(C(=N)c2ccc(N(CC)CC)cc2)cc1	0.416	2.28	0.646	2.05	0.524	1.83	0.323	1.35	0.542	2.16	0.276	1.13	0.366	1.52	0.744	2.25	0.621	2.24	0.896	4.29
O=C(N/N=C/c1cccc(O)c1O)c1ccccc1	0.466	> 100	1.48	> 100	0.695	11.5	0.388	> 100	0.569	> 100	0.301	1.94	0.769	> 100	0.895	7.05	0.902	5.32	2.57	> 69.1
CC1=C(C)CC2(CCCCC2=O)S(=O)C1 (stereo not drawn)		> 100		> 100		> 100		> 100		> 100		> 100		> 100		> 100		> 100		> 100
Cn1cc(C(=O)c2ccccc2)ccc1=O		> 100		> 100		> 100		> 100		> 100		> 100		> 100		> 100		> 100		> 100
Cc1cn2c(/C=C3/C(=O)N(C)c4ccccc43)c(C)nc2s1	5.25	> 100	20.1	> 100	5.31	> 100	5.02	> 100	8.08	> 100	2.42	6.19	3.38	> 100	67.8	> 100	12.2	97.9	21.5	> 100
CN(C)CC/C(=N\Nc1c(Cl)cccc1Cl)c1ccccc1		35.6		31.3		34.2		29.1		31.3		39.4		34.8		32.7		29.9		30.9
NC(=S)N/N=C/c1ccc(OC(=O)COc2ccc(Cl)cc2)cn1	22.9	> 100	3.64	9.98	3.51	15.6	4.93	> 100	4.24	> 100	0.954	20.8	3.18	> 100	17.9	72.1	4.17	60	30	> 100
COc1cc(OC)c(/C=C/C(=O)c2c(OC)cccc2OC)c(OC)c1	0.482	> 100	0.536	3.89	0.441	2.63	0.394	> 100	0.592	> 100	0.348	1.82	0.59	> 26		> 100	0.362	3.06	5.03	> 100
CCS(=O)(=O)c1ccc(OC)c(Nc2ncc(-c3cccc(C(C)=O)c3)o2)c1	> 25	> 25	> 25	> 25	> 25	> 25	11.4	> 25	19.7	> 25	> 25	> 25	2.1	> 25	> 25	> 25	> 25	> 25	> 25	> 25
COC(=O)Nc1nc2ccc(Oc3ccc(NC(=O)Nc4ccccc4)cc3)cc2[nH]1	0.135	> 25	0.18	5.05	0.168	2.6	0.119	> 10.4	0.126	6.6	0.0654	0.295	0.106	4.87	0.167	> 14.8	0.0933	4.5	0.787	9.74
CC/C=C\C[C@@H]1C/C=C2/C(=O)C=C[C@H]2C/C=C\CCCC(=O)O1	0.242	0.865	0.818	2.18	0.237	1.03	0.133	0.32	0.365	1.51	0.277	0.716	0.262	0.767	1.37	3.39	0.735	2.66	1.48	3.14
CCCCN=C(N)c1ccc(OCCSCCOc2ccc(C(N)=NCCCC)cc2)cc1	> 100	> 100	> 100	> 100	28.4	> 100	4.46	> 100	1.6	> 100	5.97	30	3.62	19.9	4.4	71.8	6.12	> 100	66.6	> 100
COc1c2c(cc3nc4ccccc4nc13)CCC(C(C)(C)O)C2 (stereo not drawn)		> 100		> 100		> 100		> 100		> 100		76		> 100		> 100		> 100		> 100
Cc1cccc(NC(=O)C(=O)Cc2nc3ccccc3[nH]c2=O)c1C		> 100		> 100		> 100		> 100		> 100		> 100		> 100		> 100		> 100		> 100
CCN(CC)CCCC(C)Nc1c(C)cnc2cc(Cl)c(C)cc12 (stereo not drawn)	11.7	> 68	10.8	23	1.76	3.19	2.56	13.6	12	> 100	3.19	21.2	13.8	28.6	18.2	34.4	3.44	11.1	13.9	28.4
c1ccc(C2=NNC3c4ccccc4-c4ccccc4N3C2)cc1 (stereo not drawn)		> 100		> 100		> 100		> 100		> 100		6.91		> 100		61.6		35.2		91.7
CCOC(=O)Sc1ncnc2nc[nH]c12	2.86	> 100	2.31	> 100	0.408	> 100	2.31	> 100	12.9	> 100	1.42	6.7	4.03	> 100	7.2	> 100	1.37	> 100	0.547	> 100
Cc1ccc(C(=NN=C(N)N)c2ccc(C)cc2)cc1	0.773	8.86	0.623	2.86	0.415	2.15	0.372	4.48	0.399	1.83	0.214	0.685	0.327	1.33	0.498	2.07	0.902	6.04	0.876	11.4
COc1ccc(C(=O)COc2cccc(/C=C3\COc4ccc5ccccc5c4C3=O)c2)cc1	7.59	> 100	57.4	> 100	67.8	> 100	4.21	> 100	5.61	> 100	2.07	6.83	3.11	24.6	39.7	> 100	16.3	> 100	24.2	> 100
CC(=O)OC1CC(O)C23COC(O)C1(C)C2CC(O)C1(C)C3C(=O)C(O)C2(C)C(c3ccoc3)CC3OC321 (stereo not drawn)	1.26	> 100	0.0897	> 64.2	0.0793	> 59.8	< 0.01	> 100	0.379	> 100	< 0.01	> 100	< 0.01	> 100	0.16	5.51	< 0.01	< 0.0129	> 100	> 100
COC(=O)c1cccc2cccc(C(=O)Nc3ccc(C)cc3C)c12		> 100		> 100		> 100		> 100		> 100		35		> 100		> 100		> 100		> 100
CC(=O)OC1Oc2ccccc2-c2oc(=O)c(-c3cc4ccc(N(C)C)cc4oc3=O)cc21 (stereo not drawn)	24.3	> 100	15.7	39.3	17.9	66.1	1.42	21.7	10.5	23.7	8.16	> 100	13.7	30.6	10.2	43.3	14.3	29.5	5.4	19.5
